Laboratory results as given in patent publication US10202381B2, “Histone demethylase inhibitors” (CELGENE QUANTICEL RESEARCH, INC., priority 2014, dated 2019).

Tests used:
JMJD2C = JMJD2C (Homo sapiens (Human), UniProt Q9H3R0); assay: In vitro enzyme inhibition assay (JMJD2C TR-FRET); assay type: biochemical; details: 0.3 nM JMJD2C, 300 nM H3K9me3-biotin peptide, 2 μM alpha-ketoglutaric acid
Description: This assay determines the ability of a test compound to inhibit JMJD2C demethylase activity. Baculovirus expressed JMJD2C (GenBank Accession #BC143571, AA 2-372) was purchased from BPS Bioscience (Cat#50105).
The ability of test compounds to inhibit the activity of JMJD2C was determined in 384-well plate-format under the following reaction conditions: 0.3 nM JMJD2C, 300 nM H3K9me3-biotin labeled peptide (Anaspec cat #64360), 2 μM alpha-ketoglutaric acid in assay buffer of 50 mM HEPES, pH 7.3, 0.005% Brij35, 0.5 mM TCEP, 0.2 mg/ml BSA, 50 μM sodium L-ascorbate, and 2 μM ammonium iron(II) sulfate. Reaction product was determined quantitatively by TR-FRET after the addition of detection reagent Phycolink Streptavidin-allophycocyanin (Prozyme) and Europium-anti-di-methylated histone H3 lysine 9 (H3K9me2) antibody (PerkinElmer) in the presence of 5 mM EDTA in LANCE detection buffer (PerkinElmer) at a final concentration of 50 nM and 1 nM, respectively.
The assay reaction was initiated by the following: 2 μl of the mixture of 900 nM H3K9me3-biotin labeled peptide and 6 μM alpha-ketoglutaric acid with 2 μl of 11-point serial diluted inhibitor in 3% DMSO were added to each well of the plate, followed by the addition of 2 μl of 0.9 nM JMJD2C to initiate the reaction. The reaction mixture was incubated at room temperature for 30 min, and terminated by the addition of 6 μl of 5 mM EDTA in LANCE detection buffer containing 100 nM Phycolink Streptavidin-allophycocyanin and 2 nM Europium-anti-H3K9me2 antibody. Plates were read by EnVisionMultilabel Reader in TR-FRET mode (excitation at 320 nm, emission at 615 nm and 665 nm) after 1 hr incubation at room temperature. A ratio was calculated (665/615) for each well and fitted to determine inhibition constant (IC50).
The ability of the compounds disclosed herein to inhibit demethylase activity was quantified and the respective IC50 value was determined. Table 3 provides the IC50 values of various compounds disclosed herein.

[1] = system: KYSE-150 esophageal carcinoma cell line; assay: In vitro cell-based assay: BrdU cell proliferation ELISA; parameters: species or system human; details: Homo sapiens; KYSE-150 cells, BrdU incorporation after 168 hr of compound incubation; read-out: Cellular IC50
Description: Cell lines tested include the JMJD2C gene amplified cell line KYSE-150. This is a quantitative ELISA assay measuring DNA incorporation of BrdU during S-phase as a direct readout of cellular proliferation.
Assay Principle: This is a colorimetric immunoassay for the quantification of cell proliferation. Cells treated for 168 hr with test compounds are assayed for their ability to go through S-phase as a measure of their proliferative potential.
Assay Method: The human KYSE-150 (SMAD4 mut, TP53 mut) esophageal carcinoma cell line was seeded at 2,000 cells/well on a 96-well tissue culture treated plate. After an overnight incubation, cells were treated with compound in an 11-point dilution series with final concentrations ranging from 100 μM to 2 nM. Cells were then incubated in the presence of compound for 168 hr. After compound incubation the cells were assayed using a BrdU Cell Proliferation ELISA (Roche). The cells were first incubated with BrdU labeling reagent for 2 hr. After 2 hr, the BrdU incorporated cells were fixed and denatured, probed with an anti-BrdU-Peroxidase antibody for 1.5 hr and washed. Finally, a tetramethylbenzidine peroxidase substrate was added to each well for 15 min. followed by a H2SO4 stop solution. The plate was read at 450 nm, and the raw optical density data was transferred into XLFit (IDBS) for IC50 calculation using the formula: fit=(D+((Vmax*(x^n))/((x^n)+(Km^n)))).
Table 4 provides the cellular IC50 values of various compounds disclosed herein.

Sequence of JMJD2C (Q9H3R0 2-372): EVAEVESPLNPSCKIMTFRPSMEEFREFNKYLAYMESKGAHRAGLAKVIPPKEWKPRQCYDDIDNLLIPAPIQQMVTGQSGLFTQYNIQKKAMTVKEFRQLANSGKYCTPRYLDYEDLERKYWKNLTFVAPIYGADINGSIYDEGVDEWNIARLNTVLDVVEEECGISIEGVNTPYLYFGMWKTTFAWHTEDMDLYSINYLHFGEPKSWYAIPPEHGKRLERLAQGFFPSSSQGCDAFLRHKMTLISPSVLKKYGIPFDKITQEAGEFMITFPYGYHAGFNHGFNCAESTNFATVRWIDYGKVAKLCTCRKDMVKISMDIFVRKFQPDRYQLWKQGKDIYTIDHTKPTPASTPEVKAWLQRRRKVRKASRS

Row | SMILES | IC50 (JMJD2C) [nM] | IC50 [1] [nM]
1 | CN1CCN(c2cc(N(C)c3ccc(Oc4nc(O)c5ccncc5n4)cc3)ccc2OCC(F)(F)F)CC1 [Example 136, -(4-(methyl(3-(4-methylpiperazin-1-yl)-4-(2,2,2-trifluoroethoxy)phenyl)amino)phenoxy)pyrido[3,4-d]pyrimidin-4-ol] | ≤ 100 | 1000 to 10000
2 | CCc1ccc(N(C)c2ccc(Oc3nc(O)c4ccncc4n3)cc2)c(OC)c1 [Example 137, 2-(4-((4-ethyl-2-methoxyphenyl)(methyl)amino)phenoxy)pyrido[3,4-d]pyrimidin-4-ol] | 100 to 1000 | > 10000

More lines, now with the values ahead:

Row | IC50 (JMJD2C) [nM] | IC50 [1] [nM] | SMILES
3 | ≤ 100 | 1000 to 10000 | CCN1CCN(c2cccc(N(C)c3ccc(Oc4nc(O)c5ccncc5n4)cc3)c2)CC1 [Example 138, 2-(4-((3-(4-ethylpiperazin-1-yl)phenyl)(methyl)amino)phenoxy)pyrido[3,4-d]pyrimidin-4-ol]
4 | ≤ 100 | 100 to 1000 | CN1CCC(c2cccc(N(C)c3ccc(Oc4nc(O)c5ccncc5n4)cc3)c2)CC1 [Example 140, 2-(4-(methyl(3-(1-methylpiperidin-4-yl)phenyl)amino)phenoxy)pyrido[3,4-d]pyrimidin-4-ol]
5 | ≤ 100 | ≤ 100 | CCN(c1ccc(Oc2nc(O)c3ccncc3n2)cc1)c1cccc(N2CCN(C)CC2)c1 [Example 141, 2-(4-(ethyl(3-(4-methylpiperazin-1-yl)phenyl)amino)phenoxy)pyrido[3,4-d]pyrimidin-4-ol]
